These compounds were tested on ELAM (E-selectin) expression in endothelial cells (assay: E-selectin (ELAM) cell inflammation assay). Settings: LPS and IL-1β stimulation, read-out: reduction of expression of ELAM, EC50.
Assay type: cell-based
Method: Endothelial-Leukocyte Adhesion Molecule (ELAM), also known as E-selectin, is expressed on the surface of endothelial cells. In this assay, lipopolysaccharide (LPS) and IL-1β are used to stimulate the expression of ELAM; test agents are tested for their abilities to reduce this expression, in accordance with studies showing that reduction of leukocyte adhesion to endothelial cell surface is associated with decreased cellular damage (e.g., Takada, M., Et al., Transplantation 64: 1520-25, 1997; Steinberg, J. B., et al., J. Heart Lung Trans. 13:306-313, 1994).
Endothelial cells may be selected from any of a number of sources and cultured according to methods known in the art; including, for example, coronary artery endothelial cells, human brain microvascular endothelial cells (HBMEC; Hess, D.C., et al., Neurosci. Left. 213(1): 37-40, 1996), or lung endothelial cells. Cells are conveniently cultured in 96-well plates. Cells are stimulated by adding a solution to each well containing 10 μg/ml LPS and 100 pg/ml IL-1β for 6 hours in the presence of test agent (specific concentrations and time may be adjusted depending on the cell type). Treatment buffer is removed and replaced with pre-warmed Fixing Solution® (100 μl/well) for 25 minutes at room temperature. Cells are then washed 3×, then incubated with Blocking Buffer (PBS+2% FBS) for 25 minutes at room temperature. Blocking Buffer containing Monoclonal E-Selectin Antibody (1:750, Sigma Catalog #S-9555) is added to each well. Plates are sealed and stored at 4° overnight. Plates are washed 4× with 160 μL Blocking Buffer per well. Second Antibody-HRP diluted 1:5000 in Blocking Buffer is then added (100 μL/well), and plates are incubated at room temperature (protected from light) for two hours. Plates are then washed 4× with Blocking Buffer before addition of 100 μL of ABTS Substrate solution at room temperature (Zymed, Catalog #00-2024). Wells are allowed to develop for 35 minutes, before measurement at 402 nm in a Fluoroskan® Reader with shake program for 10 seconds. Positive results are recorded as a decrease in ELAM concentration in tested wells, as compared to control wells.

`CCOC(=O)C1(C[S+]([O-])Cc2ccco2)OC(=O)C(O)=C1S(=O)(=O)Cc1ccco1` (stereo not drawn) [2-(Furan-2-ylmethanesulfinylmethyl)-3-(furan-2-ylmethanesulfonyl)-4-hydroxy-5-oxo-2,5-dihydro-furan-2-carboxylic acid ethyl ester] was tested. Which EC50 did it give?
The EC50 was at most 30 µM.

How did the EC50 turn out when `CN(C)CC(=O)OCC1(CSc2nc3ccccc3[nH]2)OC(=O)C(O)=C1Sc1nc2ccccc2[nH]1` (stereo not drawn) [Dimethylamino-acetic acid 3-(1H-benzoimidazol-2-ylsulfanyl)-2-(1H-benzoimidazol-2-ylsulfanylmethyl)-4-hydroxy-5-oxo-2,5-dihydro-furan-2-ylmethyl ester] was run?
The EC50 was at most 30 µM.

How did the EC50 turn out when `CCOC(=O)C1(CSc2nc3cc(Cl)ccc3s2)OC(=O)C(O)=C1Sc1nc2cc(Cl)ccc2s1` (stereo not drawn) [3-(5-Chloro-benzothiazol-2-ylsulfanyl)-2-(5-chloro-benzothiazol-2-ylsulfanylmethyl)-4-hydroxy-5-oxo-2,5-dihydro-furan-2-carboxylic acid ethyl ester] was run?
Its EC50 is at most 30 µM.

For `CCOC(=O)C1(CSC(=S)N2CCCC2)OC(=O)C(O)=C1SC(=S)N1CCCC1` (stereo not drawn) [4-Hydroxy-5-oxo-3-(pyrrolidine-1-carbothioylsulfanyl)-2-(pyrrolidine-1-carbothioylsulfanylmethyl)-2,5-dihydro-furan-2-carboxylic acid ethyl ester], which EC50 is on record?
Its EC50 is at most 30 µM.

`CCOC(=O)[C@]1(CSCC(NC(=O)CCC(N)C(=O)O)C(=O)NCC(=O)O)OC(=O)C(O)=C1SCC(NC(=O)CCC(N)C(=O)O)C(=O)NCC(=O)O` (stereo partly drawn) [R-3-[2-(4-Amino-4-carboxy-butyrylamino)-2-(carboxymethyl-carbamoyl)-ethylsulfanyl]-2-[2-(4-amino-4-carboxy-butyrylamino)-2-(carboxymethyl-carbamoyl)ethylsulfanylmethyl]-4-hydroxy-5-oxo-2,5-dihydro-furan-2-carboxylic acid ethyl ester] was tested. Which EC50 did it give?
Its EC50 is at most 30 µM.

`CCOC(=O)C1(CSCc2ccco2)OC(=O)C(OC(C)=O)=C1SCc1ccco1` (stereo not drawn) [4-Acetoxy-3-(furan-2-ylmethylsulfanyl)-2-(furan-2-ylmethylsulfanylmethyl)-5-oxo-2,5-dihydro-furan-2-carboxylic acid ethyl ester] was tested. Which EC50 did it give?
Its EC50 is at most 30 µM.

How did the EC50 turn out when `CCOC(=O)C1(CSCc2ccccc2)OC(=O)C(OC(C)=O)=C1SCc1ccccc1` (stereo not drawn) [4-Acetoxy-3-benzylsulfanyl-2-benzylsulfanylmethyl-5-oxo-2,5-dihydro-furan-2-carboxylic acid ethyl ester] was run?
The EC50 was at most 30 µM.

For `CCOC(=O)C1(CSc2ccc3ccccc3c2)OC(=O)C(O)=C1Sc1ccc2ccccc2c1` (stereo not drawn) [4-Hydroxy-3-(naphthalen-2-ylsulfanyl)-2-(naphthalen-2-ylsulfanylmethyl)-5-oxo-2,5-dihydro-furan-2-carboxylic acid ethyl ester], which EC50 is on record?
Its EC50 is at most 30 µM.

How did the EC50 turn out when `Cc1ccc2[nH]c(SC3=C(O)C(=O)OC3C(=O)OC3CC(C)CCC3C(C)C)nc2c1` (stereo not drawn) [4-Hydroxy-3-(5-methyl-1H-benzoimidazol-2-ylsulfanyl)-5-oxo-2,5-dihydro-furan-2-carboxylic acid 2-isopropyl-5-methyl-cyclohexyl ester] was run?
The EC50 was at most 30 µM.

For `CCOC(=O)C1(CSc2ccccc2Cl)OC(=O)C(O)=C1Sc1ccccc1Cl` (stereo not drawn) [3-(2-Chloro-phenylsulfanyl)-2-(2-chloro-phenylsulfanylmethyl)-4-hydroxy-5-oxo-2,5-dihydro-furan-2-carboxylic acid ethyl ester], which EC50 is on record?
Its EC50 is at most 30 µM.

How did the EC50 turn out when `CN(C)CCSCC1(C(=O)O)OC(=O)C(O)=C1SCCN(C)C` (stereo not drawn) [3-(2-Dimethylamino-ethylsulfanyl)-2-(2-dimethylamino-ethylsulfanylmethyl)-4-hydroxy-5-oxo-2,5-dihydro-furan-2-carboxylic acid] was run?
The EC50 was at most 30 µM.

Which EC50 does the source give for `O=C1OC(CO)(CSc2nc3cc(S(=O)(=O)O)ccc3[nH]2)C(Sc2nc3cc(S(=O)(=O)O)ccc3[nH]2)=C1O` (stereo not drawn) [4-(5-sulfo-1H-benzoimidazol-2-ylsulfanyl)-5-(5-sulfo-1H-benzoimidazol-2-ylsulfanylmethyl)-3-hydroxy-5-hydroxymethyl-5H-furan-2-one] here?
The EC50 was at most 30 µM.

How did the EC50 turn out when `CCOC(=O)C1(CSc2nc3cc(Cl)c(Cl)cc3[nH]2)OC(=O)C(O)=C1Sc1nc2cc(Cl)c(Cl)cc2[nH]1` (stereo not drawn) [3-(5,6-Dichloro-1H-benzoimidazol-2-ylsulfanyl)-2-(5,6-dichloro-1H-benzoimidazol-2-ylsulfanylmethyl)-4-hydroxy-5-oxo-2,5-dihydro-furan-2-carboxylic acid ethyl ester] was run?
Its EC50 is at most 30 µM.

`CCCCCCSCC1(C(=O)OCC)OC(=O)C(O)=C1SCCCCCC` (stereo not drawn) [3-Hexylsulfanyl-2-hexylsulfanylmethyl-4-hydroxy-5-oxo-2,5-dihydro-furan-2-carboxylic acid ethyl ester] was tested. Which EC50 did it give?
Its EC50 is at most 30 µM.

With `CCOC(=O)C1(CSc2ccnc3cc(C(F)(F)F)ccc23)OC(=O)C(O)=C1Sc1ccnc2cc(C(F)(F)F)ccc12` (stereo not drawn) [4-Hydroxy-5-oxo-3-(7-trifluoromethyl-quinolin-4-ylsulfanyl)-2-(7-trifluoromethyl-quinolin-4-ylsulfanylmethyl)-2,5-dihydro-furan-2-carboxylic acid ethyl ester] as the compound, how does the EC50 read?
The EC50 was at most 30 µM.

Which EC50 does the source give for `CCOC(=O)C1OC(=O)C(O)=C1Sc1nc2ccccc2[nH]1` (stereo not drawn) [3-(1H-Benzoimidazol-2-ylsulfanyl)-4-hydroxy-5-oxo-2,5-dihydro-furan-2-carboxylic acid ethyl ester] here?
The EC50 was at most 30 µM.

`CCOC(=O)C1(CSc2nc3ccccc3n2CC)OC(=O)C(OCC)=C1Sc1nc2ccccc2n1CC` (stereo not drawn) [4-Ethoxy-3-(1-ethyl-1H-benzoimidazol-2-ylsulfanyl)-2-(1-ethyl-1H-benzoimidazol-2-ylsulfanylmethyl)-5-oxo-2,5-dihydro-furan-2-carboxylic acid ethyl ester] was tested. Which EC50 did it give?
Its EC50 is at most 30 µM.

With `CCOC(=O)C1(CSc2nnnn2-c2ccccc2)OC(=O)C(O)=C1Sc1nnnn1-c1ccccc1` (stereo not drawn) [4-Hydroxy-5-oxo-3-(1-phenyl-1H-tetrazol-5-ylsulfanyl)-2-(1-phenyl-1H-tetrazol-5-ylsulfanylmethyl)-2,5-dihydro-furan-2-carboxylic acid ethyl ester] as the compound, how does the EC50 read?
Its EC50 is at most 30 µM.

With `O=C1NC(=O)C2(OC(=O)C(O)=C2Sc2nc3ccccc3[nH]2)C(=O)N1` [4-(1H-Benzoimidazol-2-ylsulfanyl)-3-hydroxy-1-oxa-7,9-diaza-spiro[4,5]dec-3-ene-2,6,8,10-tetraone] as the compound, how does the EC50 read?
The EC50 was at most 30 µM.

Which EC50 does the source give for `O=C1OC(CSc2nc3ccccc3s2)(C(=O)O)C(Sc2nc3ccccc3s2)=C1O` (stereo not drawn) [3-(Benzothiazol-2-ylsulfanyl)-2-(benzothiazol-2-ylsulfanylmethyl)-4-hydroxy-5-oxo-2,5-dihydro-furan-2-carboxylic acid] here?
The EC50 was at most 30 µM.

Which EC50 does the source give for `CCOC(=O)C1(CSCCS(=O)(=O)O)OC(=O)C(O)=C1SCCS(=O)(=O)O` (stereo not drawn) [4-Hydroxy-5-oxo-3-(2-sulfo-ethylsulfanyl)-2-(2-sulfo-ethylsulfanylmethyl)-2,5-dihydro-furan-2-carboxylic acid ethyl ester] here?
The EC50 was at most 30 µM.

Reference: patent US7985771B2, “Furanone derivatives” (Monsanto Technology LLC, priority 2002, dated 2011)
